Results as given in ChEMBL document CHEMBL3632552, “Discovery of (phenoxy-2-hydroxypropyl)piperidines as a novel class of voltage-gated sodium channel 1.7 inhibitors” (Bioorg Med Chem Lett, 2015).

Assays:
[1] = biological target: Sodium channel protein type 9 subunit alpha (Homo sapiens, UniProt Q15858); assay: Inhibition of human NaV1.7 by IonWorks quattro automated electrophysiology assay
[2] = biological target: Sodium channel protein type 1 subunit alpha (Homo sapiens, UniProt P35498); assay: Inhibition of human NaV1.1 by IonWorks quattro automated electrophysiology assay
[3] = biological target: Sodium channel protein type 5 subunit alpha (Homo sapiens, UniProt Q14524); assay: Inhibition of human NaV1.5 by IonWorks quattro automated electrophysiology assay
[4] = biological target: Sodium channel protein type 9 subunit alpha (Mus musculus, UniProt Q62205); assay: Inhibition of mouse NaV1.7 by IonWorks quattro automated electrophysiology assay
[5] = biological target: Sodium channel protein type 1 subunit alpha (Mus musculus, UniProt A2APX8); assay: Inhibition of mouse NaV1.1 by IonWorks quattro automated electrophysiology assay
Plasma = assay: Fraction unbound in mouse plasma; format: ADME, cell-free
[6] = Tmax in db/db mouse at 30 mg/kg, po; format: ADME, organism-based; conditions: in vivo
[7] = Cmax in db/db mouse at 30 mg/kg, po; format: ADME, organism-based; design: dose 30 mg/kg, route oral; conditions: in vivo
[8] = AUC in db/db mouse at 30 mg/kg, po; format: ADME, organism-based; conditions: in vivo
Mus musculus [9] = species on record: Mus musculus; assay: Analgesic activity in mouse assessed as inhibition of acetic acid-induced writhing response; format: functional
Mus musculus [10] = assay: Toxicity in mouse assessed as reduction of locomotor activity at 100 mg/kg, po; format: organism-based; conditions: in vivo
Mus musculus [11] = assay: Toxicity in po dosed mouse assessed as reduction of locomotor activity; format: organism-based; conditions: in vivo
[12] = Therapeutic index, ratio of toxic ID50 in mouse to analgesic activity ED50 in mouse; format: organism-based; conditions: in vivo, read-out: TI
[13] = Tmax in CD mouse at 30 mg/kg, po; format: ADME, organism-based; conditions: in vivo
[14] = Cmax in CD mouse at 30 mg/kg, po; format: ADME, organism-based; design: dose 30 mg/kg, route oral; conditions: in vivo
[15] = AUC in CD mouse at 30 mg/kg, po; format: ADME, organism-based; conditions: in vivo

Sodium channel protein type 9 subunit alpha (Homo sapiens, UniProt Q15858), sequence (Q15858 whole entry): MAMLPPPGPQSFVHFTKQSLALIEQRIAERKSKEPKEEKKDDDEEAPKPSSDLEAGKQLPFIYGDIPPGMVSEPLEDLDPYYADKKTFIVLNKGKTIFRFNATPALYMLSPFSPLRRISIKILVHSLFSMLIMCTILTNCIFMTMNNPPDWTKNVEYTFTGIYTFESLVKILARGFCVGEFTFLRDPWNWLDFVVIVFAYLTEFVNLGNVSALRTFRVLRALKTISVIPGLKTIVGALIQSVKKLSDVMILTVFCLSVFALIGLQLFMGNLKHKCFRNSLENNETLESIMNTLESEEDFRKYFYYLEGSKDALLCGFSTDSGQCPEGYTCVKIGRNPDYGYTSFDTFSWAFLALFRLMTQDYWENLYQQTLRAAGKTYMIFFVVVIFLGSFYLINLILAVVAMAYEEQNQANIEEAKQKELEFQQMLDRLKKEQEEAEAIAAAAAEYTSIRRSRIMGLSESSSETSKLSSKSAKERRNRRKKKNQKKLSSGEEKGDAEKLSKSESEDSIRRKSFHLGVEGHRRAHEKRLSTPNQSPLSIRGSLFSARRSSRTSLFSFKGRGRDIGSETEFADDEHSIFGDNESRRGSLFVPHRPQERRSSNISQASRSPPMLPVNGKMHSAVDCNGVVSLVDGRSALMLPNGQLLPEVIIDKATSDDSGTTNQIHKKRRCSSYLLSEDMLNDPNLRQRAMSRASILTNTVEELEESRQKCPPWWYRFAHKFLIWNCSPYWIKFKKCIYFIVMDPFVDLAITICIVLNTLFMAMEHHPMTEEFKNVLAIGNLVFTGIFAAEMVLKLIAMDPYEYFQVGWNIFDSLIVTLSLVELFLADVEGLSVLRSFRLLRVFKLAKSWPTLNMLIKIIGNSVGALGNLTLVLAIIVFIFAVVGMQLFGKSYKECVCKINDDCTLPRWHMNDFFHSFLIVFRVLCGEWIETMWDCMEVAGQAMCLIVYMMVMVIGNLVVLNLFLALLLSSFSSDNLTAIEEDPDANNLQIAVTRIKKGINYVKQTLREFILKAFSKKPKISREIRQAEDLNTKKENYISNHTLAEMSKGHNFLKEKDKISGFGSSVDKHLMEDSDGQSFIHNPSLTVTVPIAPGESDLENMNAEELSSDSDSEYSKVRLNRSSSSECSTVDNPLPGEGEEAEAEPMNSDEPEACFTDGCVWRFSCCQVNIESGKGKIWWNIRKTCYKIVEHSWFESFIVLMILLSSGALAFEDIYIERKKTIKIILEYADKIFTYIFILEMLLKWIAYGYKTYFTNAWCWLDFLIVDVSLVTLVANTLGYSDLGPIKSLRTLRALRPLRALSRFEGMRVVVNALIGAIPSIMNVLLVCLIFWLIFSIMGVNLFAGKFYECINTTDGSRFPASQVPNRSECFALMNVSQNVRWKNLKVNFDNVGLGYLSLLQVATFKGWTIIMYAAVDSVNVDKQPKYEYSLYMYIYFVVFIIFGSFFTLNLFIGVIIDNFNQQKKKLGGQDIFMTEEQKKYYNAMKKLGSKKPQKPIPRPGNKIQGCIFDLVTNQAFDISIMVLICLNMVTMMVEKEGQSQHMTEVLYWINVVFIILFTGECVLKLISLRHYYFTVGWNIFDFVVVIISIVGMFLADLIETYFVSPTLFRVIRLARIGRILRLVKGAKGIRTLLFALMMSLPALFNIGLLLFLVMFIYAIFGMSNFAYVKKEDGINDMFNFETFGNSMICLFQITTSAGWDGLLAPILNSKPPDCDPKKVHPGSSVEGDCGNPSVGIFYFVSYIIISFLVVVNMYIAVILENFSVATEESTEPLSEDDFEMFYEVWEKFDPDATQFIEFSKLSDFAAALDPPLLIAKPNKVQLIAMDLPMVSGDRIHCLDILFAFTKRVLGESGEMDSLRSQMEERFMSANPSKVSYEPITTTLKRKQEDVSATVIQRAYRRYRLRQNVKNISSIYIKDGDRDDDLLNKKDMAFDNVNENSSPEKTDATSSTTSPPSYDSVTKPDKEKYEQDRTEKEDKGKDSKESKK
Sodium channel protein type 5 subunit alpha, sequence (Q14524 whole entry): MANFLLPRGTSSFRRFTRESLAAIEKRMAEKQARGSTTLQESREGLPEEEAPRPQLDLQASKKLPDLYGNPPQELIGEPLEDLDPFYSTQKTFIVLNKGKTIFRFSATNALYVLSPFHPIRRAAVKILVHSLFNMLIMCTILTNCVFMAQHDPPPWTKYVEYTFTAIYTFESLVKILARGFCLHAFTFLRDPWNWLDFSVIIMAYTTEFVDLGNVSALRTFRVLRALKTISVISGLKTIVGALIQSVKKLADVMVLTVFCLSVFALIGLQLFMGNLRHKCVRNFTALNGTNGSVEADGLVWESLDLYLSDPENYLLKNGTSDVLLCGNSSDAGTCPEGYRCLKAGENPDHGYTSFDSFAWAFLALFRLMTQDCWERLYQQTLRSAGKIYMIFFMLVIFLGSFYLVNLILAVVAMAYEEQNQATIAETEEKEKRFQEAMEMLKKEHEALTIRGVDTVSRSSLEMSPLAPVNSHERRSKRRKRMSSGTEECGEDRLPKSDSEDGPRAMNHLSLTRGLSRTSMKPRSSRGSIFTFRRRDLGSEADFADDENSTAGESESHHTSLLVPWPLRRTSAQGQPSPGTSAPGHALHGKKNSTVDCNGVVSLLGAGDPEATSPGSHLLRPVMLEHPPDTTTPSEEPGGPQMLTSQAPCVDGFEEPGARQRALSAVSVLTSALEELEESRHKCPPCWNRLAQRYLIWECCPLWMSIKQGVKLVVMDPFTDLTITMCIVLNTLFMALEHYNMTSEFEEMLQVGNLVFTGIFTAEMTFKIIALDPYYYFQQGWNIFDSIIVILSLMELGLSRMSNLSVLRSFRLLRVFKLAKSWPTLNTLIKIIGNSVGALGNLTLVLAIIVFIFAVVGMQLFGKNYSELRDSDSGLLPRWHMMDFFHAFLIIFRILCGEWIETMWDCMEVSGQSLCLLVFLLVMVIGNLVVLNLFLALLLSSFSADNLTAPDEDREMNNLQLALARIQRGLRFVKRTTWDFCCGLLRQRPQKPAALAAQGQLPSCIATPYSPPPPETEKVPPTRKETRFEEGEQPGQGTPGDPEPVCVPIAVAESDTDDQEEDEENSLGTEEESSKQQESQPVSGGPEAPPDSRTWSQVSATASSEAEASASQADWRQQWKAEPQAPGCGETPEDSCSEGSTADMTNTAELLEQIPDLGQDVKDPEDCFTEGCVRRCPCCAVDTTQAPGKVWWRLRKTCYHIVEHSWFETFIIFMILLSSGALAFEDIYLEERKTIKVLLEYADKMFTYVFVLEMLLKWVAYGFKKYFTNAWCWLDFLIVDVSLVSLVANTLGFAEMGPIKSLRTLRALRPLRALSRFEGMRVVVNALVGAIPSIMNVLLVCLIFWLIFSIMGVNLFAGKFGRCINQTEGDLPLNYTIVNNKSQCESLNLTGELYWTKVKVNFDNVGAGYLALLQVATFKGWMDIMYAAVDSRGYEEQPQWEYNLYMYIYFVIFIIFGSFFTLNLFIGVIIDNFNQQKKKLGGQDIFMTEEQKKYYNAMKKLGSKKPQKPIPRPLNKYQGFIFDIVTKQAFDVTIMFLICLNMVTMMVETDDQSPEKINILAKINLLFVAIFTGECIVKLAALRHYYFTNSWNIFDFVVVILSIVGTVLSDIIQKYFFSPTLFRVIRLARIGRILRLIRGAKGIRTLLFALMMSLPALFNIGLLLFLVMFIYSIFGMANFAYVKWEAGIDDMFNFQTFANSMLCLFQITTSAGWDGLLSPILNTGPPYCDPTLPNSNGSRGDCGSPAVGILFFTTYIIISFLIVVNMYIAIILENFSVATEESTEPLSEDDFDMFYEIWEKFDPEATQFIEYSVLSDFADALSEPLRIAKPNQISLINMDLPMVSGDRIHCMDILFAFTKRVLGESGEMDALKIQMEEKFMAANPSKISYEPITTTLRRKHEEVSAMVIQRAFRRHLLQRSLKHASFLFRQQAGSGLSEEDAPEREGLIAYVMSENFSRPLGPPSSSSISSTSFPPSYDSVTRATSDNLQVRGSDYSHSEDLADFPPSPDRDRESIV

| SMILES | IC50 [1] [µM] | IC50 [2] [µM] | IC50 [4] [µM] | IC50 [3] [µM] | further results |
| --- | --- | --- | --- | --- | --- |
| O=C1COc2c(cccc2N2CCN(CC(O)COc3ccccc3C(=O)c3ccccc3)CC2)N1 (stereo not given) | 3.9 | > 33 | 5 | 20 |  |
| O=C1CCc2c(cccc2N2CCN(CC(O)COc3ccccc3C(=O)c3ccccc3)CC2)N1 (stereo not given) | 3.7 | 21 | 2.4 | 17 |  |
| O=C1CCc2c(cccc2C2CCN(CC(O)COc3ccccc3C(=O)c3ccccc3)CC2)N1 (stereo not given) | 1.3 | 7.1 | 16 | 18 |  |
| O=C(c1ccccc1)c1ccccc1OCC(O)CN1CCN(c2cccc3[nH]c(=O)oc23)CC1 (stereo not given) | 24 | > 33 | 31 | > 33 |  |
| O=C(c1ccccc1)c1ccccc1OCC(O)CN1CCC(N2C(=O)COc3ccccc32)CC1 (stereo not given) | 1.1 | 4.8 | 1.3 | 5.2 |  |
| O=C(c1ccccc1)c1ccccc1OCC(O)CN1CCC(n2c(=O)oc3ccccc32)CC1 (stereo not given) | 1.8 | 5.4 | 3.1 | 3.4 |  |
| O=C(c1ccccc1)c1ccccc1OCC(O)CN1CCC(N2C(=O)Cc3ccccc32)CC1 (stereo not given) | 9.4 | 26 | 5 | 33 |  |
| O=C1c2ccccc2CN1C1CCN(CC(O)COc2ccccc2)CC1 (stereo not given) | 3.4 | 8 | 5 | 38 |  |
| COc1ccccc1OCC(O)CN1CCC(N2Cc3ccccc3C2=O)CC1 (stereo not given) | 5.3 | 19 | 4.8 | 77 | IC50 [5]: 34 µM; Tmax [13]: 30 min; Cmax [14]: 467 ng/mL; AUC [15]: 692 ng·h/mL; ED50 (Mus musculus [9]): 7 mg/kg; ID50 (Mus musculus [11]): 20 mg/kg; selectivity ratio [12]: 2.9 |
| O=C1c2ccccc2CN1C1CCN(CC(O)COc2ccccc2C(F)(F)F)CC1 (stereo not given) | 2.8 | 4.5 | 4.8 | 7.1 |  |
| Cc1cccc(C)c1OCC(C)N.Cl (stereo not given) [MEXILETINE HYDROCHLORIDE] |  | 11 | 11 |  | IC50 [5]: 21 µM; ED50 (Mus musculus [9]): 21 mg/kg; ID50 (Mus musculus [11]): 45 mg/kg |

Continued, in another order:

| IC50 [1] [µM] | IC50 [2] [µM] | IC50 [4] [µM] | SMILES | IC50 [3] [µM] | further results |
| --- | --- | --- | --- | --- | --- |
| 0.38 | 0.67 | 0.59 | O=C(c1ccccc1)c1ccc(OCC(O)CN2CCC(N3Cc4ccccc4C3=O)CC2)cc1 (stereo not given) | 1.2 |  |
| 1 | 1.2 | 0.79 | O=C1c2ccccc2CN1C1CCN(CC(O)COc2cccc(C(F)(F)F)c2)CC1 (stereo not given) | 4.4 |  |
| 0.5 | 1.8 | 0.1 | O=C1c2ccccc2CN1C1CCN(CC(O)COc2ccc(C(F)(F)F)cc2)CC1 (stereo not given) | 2.8 |  |
| 0.48 | 0.91 | 0.33 | COc1cc(C(F)(F)F)ccc1OCC(O)CN1CCC(N2Cc3ccccc3C2=O)CC1 (stereo not given) | 5.6 |  |
| 1.1 | 3 | 1.5 | O=C1c2ccccc2CN1C1CCN(CC(O)COCc2ccc(C(F)(F)F)cc2)CC1 (stereo not given) | 3 |  |
| 1.2 | 1.5 | 0.79 | COc1cc(C(F)(F)F)ccc1COCC(O)CN1CCC(N2Cc3ccccc3C2=O)CC1.O=C(O)/C=C/C(=O)O (stereo not given) | 6.1 | IC50 [5]: 0.67 µM; Fu (Plasma): 5.55%; Tmax [6]: 30 min; Cmax [7]: 445 ng/mL; AUC [8]: 1910 ng·h/mL; ED50 (Mus musculus [9]): 10 mg/kg; Activity (Mus musculus [10]): Toxic |
| 0.7 | 0.8 | 0.4 | O=C(NC1CCN(CC(O)COc2ccc(C(F)(F)F)cc2)CC1)c1ccccc1 (stereo not given) | 1.1 |  |
| 1 | 3.1 | 0.8 | O=C(Nc1ccccc1)C1CCN(CC(O)COc2ccc(C(F)(F)F)cc2)CC1 (stereo not given) | 3.4 |  |
| 1.7 | 3.3 | 1.3 | COc1cc(C(F)(F)F)ccc1COCC(O)CN1CCC(C(=O)Nc2ccccc2)CC1 (stereo not given) | 16 | IC50 [5]: 2.4 µM; Fu (Plasma): 4.18%; Tmax [6]: 30 min; Cmax [7]: 161 ng/mL; AUC [8]: 303 ng·h/mL; ED50 (Mus musculus [9]): 19 mg/kg; ID50 (Mus musculus [11]): 111 mg/kg; selectivity ratio [12]: 5.8 |
| 0.78 | 4.4 | 2.1 | O=C1COc2c(cccc2C2CCN(CC(O)COc3ccccc3C(=O)c3ccccc3)CC2)N1 (stereo not given) | 7 |  |
| 1.5 | 3.3 | 1.2 | O=C(c1ccccc1)c1ccccc1OCC(O)CN1CCC(N2Cc3ccccc3C2=O)CC1 (stereo not given) | 24 | IC50 [5]: 3.1 µM; Tmax [13]: 30 min; Cmax [14]: 16 ng/mL; AUC [15]: 18 ng·h/mL |
| 1.1 | 3.2 | 0.92 | O=C(NC1CCN(CC(O)COc2ccccc2C(=O)c2ccccc2)CC1)c1ccccc1 (stereo not given) | 4.9 |  |
| 1.2 | 4.3 | 1 | O=C(c1ccccc1)c1ccccc1OCC(O)CN1CCC(C(=O)Nc2ccccc2)CC1 (stereo not given) | 1.9 |  |
| 0.9 | 0.92 | 0.96 | O=C(c1ccccc1)c1cccc(OCC(O)CN2CCC(N3Cc4ccccc4C3=O)CC2)c1 (stereo not given) | 3.7 | IC50 [5]: 0.69 µM; Fu (Plasma): 1.99%; Tmax [13]: 30 min; Cmax [14]: 169 ng/mL; AUC [15]: 525 ng·h/mL |
| 1.4 | 3 | 0.91 | COc1cccc(OCC(O)CN2CCC(N3Cc4ccccc4C3=O)CC2)c1 (stereo not given) | 10 |  |
| 1.8 | 2.7 | 1.3 | COc1ccc(OCC(O)CN2CCC(N3Cc4ccccc4C3=O)CC2)cc1 (stereo not given) | 13 |  |
